Measured values published in ChEMBL document CHEMBL1152842, “Synthesis, Raman, FT-IR, NMR spectroscopic data and antimicrobial activity of mixed aza-oxo-thia macrocyclic compounds” (2009).

Assays:
Format in all cases: functional
Rhodotorula mucilaginosa [1] = assay: Antifungal activity against Rhodotorula rubra DSM 70403 at 10 ug after 72 hrs by disk diffusion method; conditions: DSM 70403, 72 h, read-out: IZ
Candida albicans [2] = assay: Antifungal activity against Candida albicans ATCC 10231 at 10 ug after 72 hrs by disk diffusion method; conditions: ATCC 10231, 72 h, read-out: IZ
Kluyveromyces marxianus [3] = assay: Antifungal activity against Kluyveromyces fragilis NRRL 2415 at 10 ug after 72 hrs by disk diffusion method; conditions: NRRL 2415, 72 h, read-out: IZ
[4] = tested on: Hanseniaspora guilliermondii; assay: Antifungal activity against Hanseniaspora guilliermondii DSM 3432 at 10 ug after 72 hrs by disk diffusion method; conditions: DSM 3432, 72 h, read-out: IZ
Debaryomyces hansenii [5] = assay: Antifungal activity against Debaryomyces hansenii DSM 70238 at 10 ug after 72 hrs by disk diffusion method; conditions: DSM 70238, 72 h, read-out: IZ
Debaryomyces hansenii [6] = assay: Antifungal activity against Debaryomyces hansenii DSM 70238 at 1 ug after 72 hrs by disk diffusion method; conditions: DSM 70238, 72 h, read-out: IZ
Kluyveromyces marxianus [7] = assay: Antifungal activity against Kluyveromyces fragilis NRRL 2415 at 1 ug after 72 hrs by disk diffusion method; conditions: NRRL 2415, 72 h, read-out: IZ
Candida albicans [8] = assay: Antifungal activity against Candida albicans ATCC 10231 at 1 ug after 72 hrs by disk diffusion method; conditions: ATCC 10231, 72 h, read-out: IZ
Rhodotorula mucilaginosa [9] = assay: Antifungal activity against Rhodotorula rubra DSM 70403 at 1 ug after 72 hrs by disk diffusion method; conditions: DSM 70403, 72 h, read-out: IZ
[10] = tested on: Hanseniaspora guilliermondii; assay: Antifungal activity against Hanseniaspora guilliermondii DSM 3432 at 1 ug after 72 hrs by disk diffusion method; conditions: DSM 3432, 72 h, read-out: IZ

Row | Compound | zone of inhibition at 10 µg/disc (Rhodotorula mucilaginosa [1]) [mm] | zone of inhibition at 10 µg/disc (Candida albicans [2]) [mm] | zone of inhibition at 10 µg/disc (Kluyveromyces marxianus [3]) [mm] | zone of inhibition at 10 µg/disc [4] [mm] | zone of inhibition at 10 µg/disc (Debaryomyces hansenii [5]) [mm] | zone of inhibition at 1 µg/disc (Debaryomyces hansenii [6]) [mm] | zone of inhibition at 1 µg/disc (Kluyveromyces marxianus [7]) [mm] | zone of inhibition at 1 µg/disc (Candida albicans [8]) [mm] | zone of inhibition at 1 µg/disc (Rhodotorula mucilaginosa [9]) [mm] | zone of inhibition at 1 µg/disc [10] [mm]
1 | Clc1ccccc1C(c1ccccc1)(c1ccccc1)n1ccnc1 [CLOTRIMAZOLE] | 15 | 18 | 16 | 22 | 18 | – | – | – | – | –
2 | CC(=O)N1CCN(c2ccc(OCC3COC(Cn4ccnc4)(c4ccc(Cl)cc4Cl)O3)cc2)CC1 (stereo not given) [KETOCONAZOLE] | – | – | – | – | – | 14 | 22 | 16 | 21 | 24
